Reference: patent US6518450B2, “Guaiacoxypropanolamines with alpha/beta adrenergic blocking activity” (priority 1997, dated 2003)
Like-named read-outs stand apart in the source and are kept apart here. Marks after values point to notes of the source that are not given here.

Tests used:
[1] = tested on: isolated guinea pig thoracic aorta; conditions: 10 μM L-phenylephrine contraction, mean ± S.E. (n=6)
From the text: A 300-450 gram guinea pig is obtained, and forcefully hit at the head, and blood drained from the artery at the neck to quickly retrieve the main chest artery, which is placed in chilled Kreb solution and the fatty tissue clung to the vicinity of the blood vein is carefully removed, and then the main chest artery is trimmed to a circular shape of approximately 5 mm. Two S-shaped platinum threads are used to stabilize the top and bottom of the main artery before placing it in a 10-milliliter organ tank with 95% oxygen and 5% carbon dioxide mixed gas. One end is connected to the bottom of the organ tank, and the other end connected to the force transducer, and a recorder is used to record the isometric contraction. The specimen is given one gram of tension, and after balancing for 60 minutes, 10 μM of phenylephrine is prescribed to test the vivacity of the main chest artery. Upon balancing and the phenylephrine rinsed off, 10 μM of phenylephrine is used again to achieve the maximum contraction. And upon balancing, different concentration of synthetic testing compounds are used, 10^−5 M, 10^−6 M, or 10^−7 M, to observe the suppressing effects resulted from different concentrations of synthetic testing compounds.

β2-adrenoceptor = biological target: T1, β2-adrenoceptor (Cavia porcellus, UniProt Q8K4Z4); experiment: β2 adrenergic blockade against isoproterenol, isolated guinea pig respiratory tract (Schild plot); conditions: versus isoproterenol relaxation of detached respiratory tract; Schild plot regression
T1 construct: from tissue; host or cells: isolated guinea pig trachea (spiral strips, reserpine-pretreated animal)
T1 sequence (Q8K4Z4 whole entry): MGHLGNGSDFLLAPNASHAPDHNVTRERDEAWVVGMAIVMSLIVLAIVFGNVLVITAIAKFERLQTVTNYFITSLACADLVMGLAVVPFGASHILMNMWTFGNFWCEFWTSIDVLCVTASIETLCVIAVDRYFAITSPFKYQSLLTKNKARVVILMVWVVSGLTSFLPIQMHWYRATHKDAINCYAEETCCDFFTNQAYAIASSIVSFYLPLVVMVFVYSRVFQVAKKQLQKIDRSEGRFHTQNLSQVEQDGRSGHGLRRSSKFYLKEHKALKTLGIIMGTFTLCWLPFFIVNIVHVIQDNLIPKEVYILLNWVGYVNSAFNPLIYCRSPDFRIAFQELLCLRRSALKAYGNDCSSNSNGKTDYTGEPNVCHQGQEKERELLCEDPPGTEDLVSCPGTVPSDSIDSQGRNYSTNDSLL
Description: 300-450 gram guinea pig is obtained, and 5 mg/kg reserpine is injected on the belly 18˜24 hours prior to the experiment. Upon hitting the guinea pig into comatose, the artery at the neck is cut and the blood released, and the chest is immediately cut open and the respiratory tract (approximately 4 centimeters long) is taken along the neck and placed in a cultivation dish containing Krems solution at room temperature and connected to mixed gas of 95% oxygen and 5% carbon dioxide. The surrounding tissues are carefully removed, then the respiratory tract is cut to spiral shape that contains 3 to 4 bone coils at each turn, and then cut in two halves, with the two sides clamped by the frog-heart tweezer; one end is stabilized at the bottom and placed in the organ rinser filled with 20 ml of Krebs solution with mixed gas and the temperature maintained at 32° C.; the other side is connected to the force transducer, and even-length isometric contraction is recorded through the Coulbourn At-High-Speed Videograph. The sample is given 2 grams of tension, and upon balancing, the following experiment is conducted.
The respiratory tract used in the experiment is first balanced (approximately one hour) to derive a reflex tension, and then for each half of the respiratory tract, cumulative concentration-response curve for the isoproterenol is completed twice. In the first curve, no synthetic testing compound is added, and is used as the control unit; in the second curve, the synthetic compound first added for an hour before implementing the cumulative concentration-response curve, which is the experimental unit.

β1-adrenoceptor [2] = conditions: versus isoproterenol, contraction of left atrium; Schild plot regression; six to eight experiments
Description: The stimulating frequency is 0.5 Hz, resting tension is 0.5 grams. Upon balancing(approximately 50 minutes) the following experiment is conducted;
(a) Completion of the cumulative concentration-response curves, which is similar to the experimenting methods use on the same detached right auricle.
(b) The calculation of pA2 value is same as the calculation method used in the experiment of the detached right auricle.

α-adrenoceptor = conditions: versus L-phenylephrine contraction of detached chest artery; Schild plot regression
Description: Same as the blood vein relaxation experiment, detached primary artery taken from the guinea pig is given 1 gram of tension, and upon balancing for 60 minutes, L-phenylephrine is administered directly from low concentration to high using 0.5 log unit to gradually increase until the maximum reaction is reached, and this act as the control unit. Then different concentrations of the synthetic testing compound, 10^−7 M, 10^−6 M, or 10^−5 M, are used, and upon 30 minutes of reaction, L-phenylephrine is used again to complete the cumulative dose. The EC50 value may be obtained from observation of the suppressing effects caused by different concentrations of the synthetic testing compound.
It is same as the calculation method used in the experiment of the detached right auricle.

β1-adrenoceptor [3] = conditions: versus isoproterenol, pulsating rate of right atrium; Schild plot regression; six to eight experiments
From the text: A 300˜450 gram guinea pig is obtained and hit forcefully at the head to put it into comatose, the artery at the neck is cut to release the blood, then the chest is immediately cut open, and the heart quickly retrieved and placed in Krebs solution that is connected to mixed gas(95% oxygen, 5% carbon dioxide), and the left, right auricles separated. The right auricle, which is pulsating in reflex action, is pinned down on both ends by a frog-heart tweezer, and one end stabilized at the bottom and placed in an organ rinser filled with 10 milliliter of Krebs solution with the mixed gas, and the temperature maintained at 32.5[…]; the other end is connected to the force transducer, and the isometric contractions and pulsating frequency are recorded through the Coulbourn At-High-Speed Videograph. The specimen is given tension between 100-150 milligrams, and upon balancing, the following experiment is conducted:
In order to evaluate the degree of vivacity of the β-blockade on the synthetic compounds, for each detached auricle in reflex pulsation, upon balancing(approximately 60 minutes), the cumulative-concentration curve of the β-agonist isoproterenol is completed twice separately. The experiment is designed as follows: <1>The first curve indicates direct application of isoproterenol from low concentration to high using 0.5 log unit to gradually increase until it reaches the maximum reaction; this is the control unit. <2>the second curve is the experimental unit. Different concentrations of synthetic testing compounds(10^−7 M, 10^−6 M, or 10^−5 M), from low concentration to high, are given 30 minutes to react before isoproterenol is used to complete the cumulative prescription. The EC50 value is obtained from observation of the suppressing effects generated from different concentrations of synthetic testing compounds.
According to the method used by Arunlakshana and Schild in 1959, the corresponding values of the synthetic testing compounds are used as the horizontal coordinate, and the corresponding values on the first derivative of the dose ratio are used as the vertical coordination, the values obtains are graphed and linear regression is implemented to obtain a regressed straight-line horizontal coordinate's extracted distance value, which is the pA2 value for this particular synthetic testing compound.

[4] = tested on: pentobarbital-anesthetized normotensive rats; conditions: mean ± S.E. (n=6)
Description: A male Wistar Strain, weighing 300˜450 grams, is administered with 40 mg/kg of pentobarbital sodium via hypodermic syringe for anesthesia before implementing trachea dissection and inserting respiratory tube to ensure the animal maintains smooth breath during operation, while also facilitating emergency rescue. The tube insertion is done with a polyethylene tube (PE50), with inner diameter of […] and outer diameter of 0.97 mm, on the femoral vein to facilitate administering medication during the experiment; a 3-way stopcock is used by connecting one end to the medicated bottle, while the other end is connected to the saline solution bottle, thus some saline solution can be injected right after administering the medication to prevent the medication from lingering in the polyethylene tube (PE50) that may affect the accuracy of the experiment. The left artery is also inserted with the polyethylene tube(PE50) by using the same 3-way stopcock with one end connected to heparin solution as the polyethylene tube (PE50) is equipped with a valve to clear any blockage in the path; the other end is connected to disposable diaphgram dome (TA1019), which is then connected to the data converter, and through an amplifier, and then finally through the recorder to record the medication's impact on the male Wistar Strain's blood pressure and heartbeat. The Wistar Strain is given different dosages of test medication in 1.0, 1.5, 3.0 mg/kg respectively through intravenous injection to examine the medication's effects on heartbeat and blood pressure.

Row | SMILES | percentage of relaxation in comparison with the basal value ([1]; 10^−4 M) | percentage of relaxation in comparison with the basal value ([1]; 10^−5 M) | percentage of relaxation in comparison with the basal value ([1]; 10^−6 M) | PA2 value β2 (β2-adrenoceptor) | PA2 value β1 left atrium (β1-adrenoceptor [2]) | PA2 value α (α-adrenoceptor) | PA2 value β1 right atrium (β1-adrenoceptor [3]) | Blood pressure change ([4]; 1 mg/kg intravenous) | Blood pressure change ([4]; 1.5 mg/kg intravenous) | Blood pressure change ([4]; 3 mg/kg intravenous)
1 | C=CCc1ccc(OCC(O)CNCCOc2ccccc2OC)c(OC)c1 (stereo not shown) [Compound 1, 1-[(4-allyl-2-methoxy)phenoxy}-3-[(2-methoxyphenoxyethyl)amino}-propanol] | −62.8 ± 8.7^a % | −51.7 ± 6.8% | −39.7 ± 9.1% | 6.59 | 7.95 | 8.12 | 7.83 | −23.1 ± 4.5 mmHg | −30.1 ± 3.6 mmHg | −38.1 ± 5.1 mmHg
2 | CCOC(=O)C=Cc1ccc(OCC(O)CNCCOc2ccccc2OC)c(OC)c1 (stereo not shown) [Compound 2, 1-[(4-propenoic acid ethyl ester-2-methoxy)phenoxy]-3-[(2-methoxyphenoxyethyl)amino]-propanol] | – | −42.1 ± 9.1% | −35.9 ± 7.9% | 7.05 | 8.16 | 7.95 | 8.02 | −37.5 ± 5.2 mmHg | −44.2 ± 8.0 mmHg | −52.4 ± 4.5 mmHg
3 | CCCCCCCCC(=O)NCc1ccc(OCC(O)CNCCOc2ccccc2OC)c(OC)c1 (stereo not shown) [Compound 3] | – | −40.7 ± 8.4% | −34.5 ± 4.2% | 6.81 | 7.61 | 7.12 | 7.80 | −32.6 ± 5.5 mmHg | −41.7 ± 4.0 mmHg | −52.0 ± 8.0 mmHg
4 | CC=Cc1ccc(OCC(O)CNCCOc2ccccc2OC)c(OC)c1 (stereo not shown) [Compound 4, 1-[(4-propenyl-2-methoxy)-phenoxy]-3-[(2-methoxyphenoxyethyl)amino]-propanol] | – | −30.1 ± 3.6% | −23.4 ± 3.7% | 6.13 | 7.89 | 7.20 | 7.63 | −24.9 ± 3.2 mmHg | −29.5 ± 5.1 mmHg | −36.4 ± 7.2 mmHg
